Laboratory results taken from patent US20200188382A1, “PHARMACEUTICAL COMPOSITION FOR INDUCING PROGRAMMED CELL DEATH IN CANCER CELLS” (KYOTO UNIVERSITY, priority 2016, published 2020).

How the values were obtained:
Type in all cases: cell-based
[1] = test system: Human cervical cancer cell line HeLa; test: Induction of production of NO in cancer cells (DAF-FM DA, flow cytometry); details: 10 μM, 10 hours at 37° C., MEM (No Glucose) containing 0.1% Galactose and 5% FBS, FIG. 1
Description: The amount of nitric oxide (NO) produced in cancer cells was measured using a nitric oxide detection indicator. Specifically, Compound 1 prepared as described above was added to cancer cells that were to be cultured under the following conditions such that the concentration of Compound 1 was 10 μM, and the cancer cells were cultured for 10 hours, then flow cytometry was performed while the NO detection indicator was in contact therewith, and fluorescence intensity and cell number distribution were measured.
(§1) Cancer cells: Human cervical cancer cell line HeLa
(§2) Nutrient sources of culture medium: MEM (No Glucose) containing 0.1% Galactose and 5% FBS
Culture time after Compound 1 or DMSO was added: 10 hours at 37° C.
Nitric oxide detection indicator: Diaminofluorescein-FM diacetate (DAF-FM DA)

[2] = test system: a plurality of cancer cell lines; test: Antitumor effect on a plurality of cancer cell lines
[3] = test system: Human cervical cancer cell line HeLa; test: NO dependency of caspase 3 activation (NO scavenger / NO synthesis inhibitor), flow cytometry; details: FIG. 5
Description: It was confirmed that the activity of Caspase-3 above was NO-dependent, using two types of methods in which an NO scavenger and an NO synthesis inhibitor were used.
That is, first, the NO scavenger (0.2 mM) or NO synthesis inhibitor (4 mM) described above was added to cancer cells that were to be cultured under the following conditions, and the cancer cells were cultured for 1 hour, Compound 1 prepared as described above was added thereto such that the concentration of Compound 1 was 10 μM, the cancer cells were cultured for 15 hours, flow cytometry was then performed while a caspase 3 substrate and a membrane impermeable DNA stain were in contact therewith, and thus two-color dot plots were created.
as §1, §2
Culture time after NO scavenger and NO synthesis inhibitor were added: 1 hour at 37° C.
NO scavenger: Carboxy-PTIO (cPTIO)
NO synthesis inhibitor: L-NAME (NO synthatase inhibitor)
Culture time after Compound 1 or DMSO was added: 15 hours
Caspase 3 substrate: NucView (trademark, Biotium) 488
Membrane impermeable DNA stain: DRAQ7 (trademark, BioStatus)

[4] = test system: Human cervical cancer cell line HeLa; test: Programmed cell death under glucose starvation, WST-8 assay; details: 16 hours at 37° C., MEM with 0.1% Glucose or 0.1% Galactose (No Glucose) and 5% FBS, FIG. 6
Description: It was confirmed that programmed cell death of cancer cells by Compound 1 was facilitated under glucose starvation.
Specifically, the nutrient source of a culture medium used when Compound 1 was applied to cancer cells was set to either glucose (Glc) or galactose (Gal), cancer cells were cultured for 16 hours, and the survival rate of cancer cells was measured using WST-8 assays.
as §1
Culture medium before Compound 1 was added: MEM containing 10% FBS
Culture medium after Compound 1 was added: MEM containing 0.1% Glucose and 5% FBS, or containing 0.1% Galactose and 5% FBS (No Glucose)
Culture time after Compound 1 was added: 16 hours at 37° C.

[5] = test system: Human cervical cancer cell line HeLa; test: Antitumor activity: number of living cells by CFSE-DA staining and WST-8 assay; details: 5, 10, or 20 μM, 4 days at 37° C., MEM containing 5% FBS, CFSE-DA and WST-8, FIGS. 2 and 3
Description: The antitumor effect on cancer cells was confirmed through measurement of the number of living cells using two methods.
Specifically, Compound 1 prepared as described above was added to cancer cells that were to be cultured under the following conditions such that the concentration of Compound 1 was 5, 10, or 20 μM, cancer cells were cultured for 4 days, and then an effect of Compound 1 on cancer cells was confirmed through fluorescence staining of living cells using CFSE-DA (FIG. 2) and WST-8 assays (FIG. 3).
as §1
Nutrient sources of culture medium: MEM containing 5% FBS
Culture time after Compound 1 or DMSO was added: 4 days at 37° C.
CFSE: 5- or 6-(N-Succinimidyloxycarbonyl)fluorescein 3′,6′-diacetate

O=S(=O)(Nc1cc(C(F)(F)F)ccc1N1CC[C@@H]2CCCC[C@H]2C1)c1ccc(F)cc1 [Compound 1]
production of NO in cells [1]: enhanced | antitumor effect [2]: exhibited an antitumor effect on a plurality of cancer cell lines | NO dependency of induced programmed cell death ([3]; 10 μM, cPTIO or L-NAME): NO-dependent | ratio of cells with DRAQ7 negative and NucView 488 positive ([3]; Compound 1 at 10 μM alone, 15 hours, no glucose/0.1% Galactose, control 7.8%): 36.1% | ratio of cells with DRAQ7 negative and NucView 488 positive under the presence of cPTIO ([3]; Compound 1 at 10 μM, 15 hours, after 1 hour with NO scavenger cPTIO 0.2 mM): 13.9% | ratio of cells with DRAQ7 negative and NucView 488 positive under the presence of L-NAME ([3]; Compound 1 at 10 μM, 15 hours, after 1 hour with NO synthesis inhibitor L-NAME 4 mM): 22.7% | programmed cell death (survival rate) in glucose vs galactose medium [4]: facilitated in a glucose depleted state | antitumor effect (survival rate of cancer cells) [5]: antitumor effect of reducing the survival rate of cancer cells
